# According to US10858357B2, “Water-soluble myosin 2 inhibitors for the treatment of neurological, neuropathic or psychiatric diseases” (PARIS SCIENCES ET LETTRES-QUARTIER LATIN, priority 2016, dated 2020):
# Experiments:
# HeLa cells = test: HeLa wound healing (motility) assay; type: cell-based, human; settings: 20 μM, after 24 h, uncoated glass; control 30.6±5.4%
# Method: For wound healing assays, 200 μl of HeLa cells were plated on 35 mm borosilicate glass imaging dishes at 300,000 cells/ml concentrations and incubated for 24 hours. Prior to wounding, cells were incubated in 20 μM of neurelaxin-A for an hour. After one hour, scratches were made with pipette tips in monolayer cultures and the motility of cells for occupying the wound was monitored for 24 hours with a Foculus Digital Camera (IEEE1394). Analysis of cell motility was carried out by ImageJ, by measuring the distance between two lines fitted on the two sides of the approaching cell edges created by the pipette tips.
# To test the effect of neurelaxin-A on the motility of HeLa cells on uncoated glass surface, wound-healing assays were carried out in the absence and in the presence of 20 μM concentrations of the inhibitor.
# After 24 h, the percent of migration was measured for each sample. The control corresponds to a sample in the absence of inhibitor.
# [1] = test system: HeLa Kyoto H2B-mCherry eGFP-α-tubulin cells; test: Inhibition of cytokinesis / cell growth of HeLa cells; type: cell-based, human; settings: 25 μM, 3rd day
# Method: For cell growth assays, HeLa Kyoto H2B-mCherry eGFP-α-tubulin cells were grown on an eight-chambered Lab-Tek borosilicate cover glass system, with the initial cell concentration of 100,000 cells/ml. As soon as the cells attached to the surface, they were treated with 0, 2, 5, 10, 25 or 50 μM concentrations of neurelaxin-A. Cells were grown for three days in the presence of the indicated inhibitor concentrations and cell numbers were quantified each day. The final vol/vol % of DMSO in all experiments was 0.1. Data analysis was carried out by Fiji software. On the third day of the experiment, multinuclear cells were visualized by using a Zeiss LSM 710 with a Plan Apo 20×/0.8 objective.
# Another important phenotypic effect of non-muscle myosin 2 inhibition is the blocking of cytokinesis and consequently, the increasing number of multinucleated cells and the relatively low total cell number in human cancer cell cultures (Straight et al. Science, 2003, 299 (5613), pp 1743-1747). Therefore, the ratio of multinuclear cells and total cell number of HeLa cells was measured in time at different concentrations of neurelaxin-A (FIGS. 3F and 3G).
# Cells incubated in different concentrations of the inhibitors were counted on each day for three days. […] In parallel with this phenomenon, the ratio of multinuclear cells increased with increasing inhibitor concentration.
# [2] = test system: zebrafish skeletal muscle; test: Zebrafish fast escape response (C-start), maximal angular velocity; type: in vivo, zebrafish (Danio rerio); settings: 6 dpf zebrafish
# Method: For the fast escape response experiments, 6 dpf larvae were placed in 50 μl drops on a plastic plate. They were treated with 0, 2, 5, 10 or 20 μM of neurelaxin-A. To evoke C-start response, acoustic stimuli were applied according to the following protocol: 10 taps were carried out with 1 minute intervals every hour for 4 hours. The force of tapping was standardized. Images were recorded with Ximea Camera (MQ003MG-CM) at 500 fps for 2 s. Data were analyzed by Flote software version 2.1 and maximal angular velocity parameters of C-start reflex were quantified. For the experiments investigating the effect of the inhibitor on the heart muscle of zebrafish, 6 dpf larvae were embedded in 1% agarose and kept in E3 in the presence of 20 μM neurelaxin-A. Videos were taken by a camera at 15.1 fps before and after inhibitor treatment every hour for 3 hours.
# Transgenic Tg(−8.0cldnb:lynEGFP)^zf106 (cldnb:gfp) (Haas, P. & Gilmour, D., Developmental Cell 10, 2006, pp 673-680) zebrafish (Danio rerio) were maintained in the animal facility of Eötvös Loránd University. […]
# The relative rate of in vivo skeletal muscle contraction was quantified based on the velocity of the rotating heads of the animals have been quantified (maximal angular velocity) in the absence and in the presence of neurelaxin-A (2 μM), monitored for 4 hours.
# zebrafish embryos = test: Zebrafish embryo toxicity test; type: in vivo, zebrafish (Danio rerio)
# Method: Transgenic Tg(−8.0cldnb:lynEGFP)^zf106 (cldnb:gfp) (Haas, P. & Gilmour, D., Developmental Cell 10, 2006, pp 673-680) zebrafish (Danio rerio) were maintained in the animal facility of Eötvös Loránd University. For the experiments investigating the skeletal and heart muscle of zebrafish, 6 dpf embryos were used. For cytotoxicity assays, 2 dpf embryos were dechorionated and placed in E3 medium (5 mM NaCl, 0.33 mM MgCl2, 0.33 mM CaCl2 and 0.17 mM KCl) complemented with the inhibitor in the indicated concentrations.578 PCT
# In order to test the cytoxicity of neurelaxin-A in a live animal model, zebrafish embryos were treated with the inhibitor at different concentrations and their development was followed for 72 hours (FIG. 4d).
# [3] = Fluorescence emission spectrum; type: physicochemical; settings: 5 μM, λexc=350 nm, assay buffer 0.1% DMSO
# Method: Fluorescence emission spectra (λexc=350 nm) were recorded in assay buffer containing 0.1% DMSO applying the inhibitors at 5 μM concentrations. The photoconversion measurements were carried out using 5 μM neurelaxin-A in assay buffer and irradiating the samples at 480±10 nm for 0, 5, 10 and 15 minutes using a Fluorescence Spectrometer (F900, Edinburgh Instruments) equipped with a 450 W Xenon Lamp. Their absorbance spectra were measured at each time point.
# Fluorescence emission spectra (λexc.=350 nm) were recorded in assay buffer containing 0.1% DMSO comprising the inhibitor at 5 μM concentration.
compound,measurement,setting,value
"Cc1ccc2c(c1)C(=O)C1(O)CCN(c3ccc(N)cc3)C1=N2 (stereo not shown) [Neurelaxin-A, 1-(4-aminophenyl)-3a-hydroxy-6-methyl-3,3a-dihydro-1H-pyrrolo[2,3-b]quinolin-4(2H)-one]",relative migration of HeLa cells (100% = total diameter of the wound),HeLa cells,62.6±3.6%
same,effect on cytokinesis / cell number,[1],completely inhibited cytokinesis
same,time of half inhibition of maximal angular velocity,[2]; 2 μM,3.2 h
same,EC50,"[2]; Danio rerio, C-start, monitored for 4 hours, read-out: EC50 for the inhibition of the maximal angular velocity",< 2000 nM
same,visible damage in zebrafish embryos,zebrafish embryos; 72 hours,does not cause any visible damage
same,signs of cytotoxicity in zebrafish embryos,"zebrafish embryos; after 40 hours, even at high concentrations",did not show any signs of cytotoxicity
same,fluorescence signal,[3],no fluorescence signal
